Results reported in patent publication US20240228570A9, “PLATFORM TECHNOLOGY FOR TREATMENT OF INFLAMMATORY, IMMUNOLOGICAL AND/OR AUTOIMMUNOLOGICAL DISEASES” (ellennbe GmbH, priority 2021, published 2024).

Tests used:
[1] = Adverse side effects, intolerances, incompatibilities in treated subjects and patients; assay type: in vivo, human; conditions: for earlier treatment with TNF-α inhibitors (patient history): Patient 12, ankylosing spondylitis; for adverse effects of earlier or basic treatment (patient history): Patient 7, rheumatoid arthritis/synovitis
perfusion of the skin = conditions: cited from earlier work
[2] = system: inflammatory disease, immunological disease and/or autoimmunological disease; test: Treatment of patients: condition as stated by patient and physician (pain, fatigue, daily life, duration of effect, relapses); assay type: in vivo, human
Experimental: All patients treated in the following Inventive Examples, Reference Examples and Comparative Examples were selected solely based on their diagnosis without performing a preselection in view of other parameters.
Annotation to the Tables 8A and B and 9 to 10: Patients were usually examined and treated in the same session. The success of the treatment or the effect thereof was then determined in the following session, usually one week later, and the next treatment performed as indicated in the tables.

Compound: Remicade®: TNF-α inhibitor
- earlier treatment with TNF-α inhibitors (patient history) [1]: accompanied by strong adverse side effects and hence, not successful

Compound: CN(Cc1cnc2nc(N)nc(N)c2n1)c1ccc(C(=O)N[C@@H](CCC(=O)O)C(=O)O)cc1 [MTX, methotrexate]
- adverse effects of earlier or basic treatment (patient history) [1]: severe adverse effects (tendency to fibrosis in the lungs and sinusitis)

Compound: CCN(CCO)CCCC(C)Nc1ccnc2cc(Cl)ccc12.O=S(=O)(O)O (stereo not shown) [Quensyl®, hydroxychloroquin sulphate]
- adverse effects of earlier or basic treatment (patient history) [1]: can cause irreversible eye damage with long-term use

Compound: CC[C@@H]1CN(C(=O)NCC(F)(F)F)C[C@@H]1c1cnc2cnc3[nH]ccc3n12 [upadacitinib]
- adverse effects of earlier or basic treatment (patient history) [1]: severe adverse effects (tendency to fibrosis in the lungs and sinusitis)

Compound: Enbrel®
- earlier treatment with TNF-α inhibitors (patient history) [1]: accompanied by strong adverse side effects and hence, not successful

Compound: COC(=O)c1cccnc1 [MN, methyl nicotinate]
- perfusion response of the skin (perfusion of the skin; 50 μl of 20 mmol/l MN topical, healthy subjects, Laser Speckle Contrast Imager): reproducible perfusion response
- time course of the perfusion increase (perfusion of the skin; topical application of MN, increase occurs a few minutes after application): reaches a stable plateau phase after five minutes

Compound: tocilizumab: IL-6 inhibitor
- effectiveness of earlier or basic treatment (patient history) ([2]; Patient 7, rheumatoid arthritis/synovitis, before or beside the treatment of IE 7): only partially efficient

Compound: Simponi®: biologic, golimumab
- effect of earlier treatment with biologics (patient's report) ([2]; Patient 11, ankylosing spondylitis, within half a year the biologics lost their effect): had little effect from the outset

Compound: Symponi®: TNF-α inhibitor
- earlier treatment with TNF-α inhibitors (patient history) [1]: accompanied by strong adverse side effects and hence, not successful
